Test results published in patent publication US20250228855A1, “PYRAZINAMIDE COMPOUNDS” (The General Hospital Corporation, priority 2022, published 2025).
Where a name gives a salt, the structure may show the parent alone. Read-outs that look alike come from different tables or passages of the source.

Experiments:
PfcProRS = PfcProRS (Plasmodium falciparum, UniProt Q8I5R7); experiment: TR-FRET ligand displacement assay with tracer MAT379, PfcProRS; assay type: binding
[1] = test system: luciferase-expressing P. berghei ANKA sporozoites; experiment: P. berghei liver stage assay in HuH7 cells; assay type: cell-based; conditions: Plasmodium berghei, Huh-7; HuH7 hepatocytes, ~44 hpi, luminescence
Procedure: (§1) Halofuginone and derivatives are active against liver stage Plasmodium parasites. NCP26 and MAT436 were evaluated in a tissue culture-based P. berghei liver stage model. Specifically, various test compounds were added in dose-response to human hepatocytes (HuH7) followed by infection with luciferase-expressing P. berghei ANKA sporozoites, which enabled quantification of parasite load by luminescence. In parallel, host cell viability was also assessed to provide an estimate of cellular selectivity.
(§2) P. berghei Liver Stage and HuH7 Host Hepatocyte Growth Assay: HuH7 cells (Sigma) were cultured in DMEM+L-Glutamine (Gibco) supplemented with 10% (v/v) heat-inactivated FBS (Sigma) and 1% (v/v) antibiotic/antimycotic (Sigma). Hepatocyte cultures were maintained in a standard tissue culture incubator at 37° C. Anopheles mosquitoes infected with luciferase-expressing P. berghei ANKA sporozoites were obtained from the Sporocore at the University of Georgia. […] At ˜44 hpi, HuH7 cell viability and P. berghei parasite load was assessed using CellTiter-Fluor (Promega) and Bright-Glo (Promega), respectively, using an Envision plate reader. Relative fluorescence and luminescence signal intensities were normalized to the negative control, 1% DMSO. EC50 values were determined using GraphPad Prism through fitting data to a dose response curve. […]

[2] = test system: halofuginone-induced (HFG-induced) P. falciparum; experiment: P. falciparum asexual blood stage growth assay, halofuginone-induced parasites; conditions: Plasmodium falciparum
Procedure: (§3) Asexual blood stage (ABS) P. falciparum parasites were treated with test compounds at varying concentrations for 72 h, followed by quantification of parasite growth by SYBR Green staining.
(§4) P. falciparum Asexual Blood Stage Growth Assay: This assay was performed as previously described.

[3] = Storage stability of MAT436·HBr (LC-MS); assay type: physicochemical
P. falciparum Dd2-2D4 = experiment: P. falciparum asexual blood stage growth assay, wild-type Dd2-2D4; conditions: Plasmodium falciparum; for IC50: DD2, read-out: IC50 for Dd2-2D4
Procedure: as §3, §4

HsProRS = target: T1, HsProRS (Homo sapiens, UniProt P07814); experiment: TR-FRET ligand displacement assay with tracer MAT379, HsProRS; assay type: binding
T1 sequence (P07814 1007-1512 limits assumed): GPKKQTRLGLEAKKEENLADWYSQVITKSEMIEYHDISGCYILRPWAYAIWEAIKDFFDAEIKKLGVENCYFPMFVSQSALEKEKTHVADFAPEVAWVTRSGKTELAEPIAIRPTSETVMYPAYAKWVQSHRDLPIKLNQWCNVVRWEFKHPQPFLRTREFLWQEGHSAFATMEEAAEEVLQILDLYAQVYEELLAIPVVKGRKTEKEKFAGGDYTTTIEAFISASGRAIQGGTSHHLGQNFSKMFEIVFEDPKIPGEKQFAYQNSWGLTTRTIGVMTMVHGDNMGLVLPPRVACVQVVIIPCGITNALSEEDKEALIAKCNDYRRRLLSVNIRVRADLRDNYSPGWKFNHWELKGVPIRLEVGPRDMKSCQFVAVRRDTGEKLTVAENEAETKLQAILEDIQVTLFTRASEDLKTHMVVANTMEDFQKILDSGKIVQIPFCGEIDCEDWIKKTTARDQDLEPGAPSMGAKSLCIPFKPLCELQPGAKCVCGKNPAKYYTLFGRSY

HuH7 cells = experiment: HuH7 host hepatocyte viability assay; assay type: cell-based; conditions: Homo sapiens, Huh-7; host cell viability
Procedure: as §1, §2

[4] = PfcProRS (KD [nM]) +proline, 100 μM Pro
[5] = DD2, 72 h, read-out: Dd2 (EC50 [nM]) Halofuginone-induced
[6] = DD2, 72 h, read-out: Dd2 (EC50 [nM]) wt
[7] = DD2, read-out: EC50 against Dd2-2D4 wildtype parasites
[8] = absence of proline, read-out: KD for PfcProRS
[9] = no proline, no ATP, read-out: PfcProRS (KD [nM]) −
[10] = absence of proline, read-out: KD for HsProRS
[11] = no proline, no ATP, read-out: HsProRS (KD [nM]) −
[12] = read-out: PfcProRS (KD [nM]) +proline, 100 μM Pro
[13] = read-out: HsProRS (KD [nM]) +proline, 100 μM Pro
[14] = PfcProRS (KD [nM]) +ATP, 500 μM ATP

Chain of PfcProRS (Q8I5R7 whole entry): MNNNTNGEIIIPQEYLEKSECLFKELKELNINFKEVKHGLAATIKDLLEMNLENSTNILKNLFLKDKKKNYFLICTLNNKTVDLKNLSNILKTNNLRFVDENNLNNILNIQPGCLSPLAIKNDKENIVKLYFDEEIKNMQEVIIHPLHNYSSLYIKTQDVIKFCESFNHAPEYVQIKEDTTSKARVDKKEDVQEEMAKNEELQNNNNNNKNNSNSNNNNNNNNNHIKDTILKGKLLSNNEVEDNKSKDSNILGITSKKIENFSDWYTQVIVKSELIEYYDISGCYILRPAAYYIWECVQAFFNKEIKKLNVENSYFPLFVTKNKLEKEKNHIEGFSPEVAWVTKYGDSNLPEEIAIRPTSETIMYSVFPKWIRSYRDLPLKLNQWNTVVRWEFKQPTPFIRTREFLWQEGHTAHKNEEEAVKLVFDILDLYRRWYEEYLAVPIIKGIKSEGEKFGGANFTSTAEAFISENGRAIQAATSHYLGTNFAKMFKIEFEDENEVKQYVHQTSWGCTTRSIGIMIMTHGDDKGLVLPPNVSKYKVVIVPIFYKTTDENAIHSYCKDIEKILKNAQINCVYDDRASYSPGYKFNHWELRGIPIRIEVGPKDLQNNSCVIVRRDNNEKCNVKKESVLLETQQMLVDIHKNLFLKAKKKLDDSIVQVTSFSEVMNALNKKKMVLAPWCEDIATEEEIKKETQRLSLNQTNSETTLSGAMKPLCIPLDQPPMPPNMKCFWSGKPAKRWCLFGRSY

Row | SMILES | Kd (PfcProRS; [4]) [nM] | EC50 [2, 5] [nM] | EC50 (P. falciparum Dd2-2D4; [6]) [nM] | Kd (PfcProRS; [8]) [nM] | Kd (PfcProRS; [9]) [nM] | Kd (HsProRS) [nM] | Kd (HsProRS; [10]) [nM] | Kd (HsProRS; [11]) [nM] | other results
1 | O=C(C[C@H]1NCCC[C@@H]1OC(=O)NS(=O)(=O)N1CCN(C(=O)Nc2nccnc2C(=O)NC2Cc3ccccc3C2)CC1)Cn1cnc2cc(Br)c(Cl)cc2c1=O (relative stereo) [MAT436 (34), trans-2-(3-(7-bromo-6-chloro-4-oxoquinazolin-3(4H)-yl)-2-oxopropyl)piperidin-3-yl ((4-((3-((2,3-dihydro-1H-inden-2-yl)carbamoyl)pyrazin-2-yl)carbamoyl)piperazin-1-yl)sulfonyl)carbamate hydrobromide] | 0.722 | 251 | 6.76 | – | – | – | – | – | fold affinity for PfcProRS compared to halofuginone in the absence of ATP (PfcProRS; absence of ATP): > 10^4 fold; Kd (PfcProRS; absence of ATP, read-out: KD for PfcProRS): 0.375 nM; EC50 [1]: 186 nM; hydrolyzed at carbamate carbonyl ([3]; 10 mM stock solution in DMSO, 8 days at room temperature, LC-MS): ~36%; stability of neat compound ([3]; neat, 4° C.): stable indefinitely; EC50 (P. falciparum Dd2-2D4; [7]): 6.8 nM
2 | Nc1ncnc2c1ncn2[C@@H]1O[C@H](CNS(=O)(=O)NC(=O)OCCn2cnc3ccccc3c2=O)[C@@H](O)[C@H]1O [MAT511, 2-(4-oxoquinazolin-3(4H)-yl)ethyl (N-(((2R,3S,4R,5R)-5-(6-amino-9H-purin-9-yl)-3,4-dihydroxytetrahydrofuran-2-yl)methyl)sulfamoyl)carbamate] | 1810 | 52.2 | 76.5 | > 10000 | > 2860 | > 5090 | > 10000 | > 8720 | IC50 (P. falciparum Dd2-2D4): 73.9 nM
3 | O=C(NS(=O)(=O)NCC1CCN(C(=O)Nc2nccnc2C(=O)NC2Cc3ccccc3C2)CC1)OCCn1cnc2ccccc2c1=O [MAT514, 2-(4-oxoquinazolin-3(4H)-yl)ethyl (N-((1-((3-((2,3-dihydro-1H-inden-2-yl)carbamoyl)pyrazin-2-yl)carbamoyl)piperidin-4-yl)methyl)sulfamoyl)carbamate] | 32.6 | 7040 | 4560 | 35.2 | – | 372 | 277 | – | IC50 (P. falciparum Dd2-2D4): 4560 nM
4 | O=C(CCCCCNC(=O)Nc1ccccc1)NC1CCN(C(=O)Nc2nccnc2C(=O)NC2Cc3ccccc3C2)CC1 [MAT515] | 46.6 | 3300 | 381 | 70.4 | – | 504 | 169 | – | –
5 | O=C(CCCCCNC(=O)Nc1ccccc1)NCC1CCN(C(=O)Nc2nccnc2C(=O)NC2Cc3ccccc3C2)CC1 [MAT516] | – | 4760 | 636 | – | 94.1 | – | – | 402 | Kd (PfcProRS; [12]): 60.8 nM; Kd (HsProRS; [13]): 159 nM
6 | O=C(CCCCCNC(=S)Nc1ccccc1)NCC1CCN(C(=O)Nc2nccnc2C(=O)NC2Cc3ccccc3C2)CC1 [MAT517] | – | 6840 | 2680 | – | 95.6 | – | – | 865 | Kd (PfcProRS; [12]): 80.2 nM; Kd (HsProRS; [13]): 1680 nM
7 | O=C(CCCCCNC(=S)NC1CCCCC1)NCC1CCN(C(=O)Nc2nccnc2C(=O)NC2Cc3ccccc3C2)CC1 [MAT518] | 288 | 1500 | 1820 | 372 | – | > 5090 | 2760 | – | selectivity for PfcProRS compared to HsProRS (PfcProRS): ~7 fold
8 | CC(C)(C)OC(=O)N1CCC[C@@H](OC(=O)NS(=O)(=O)N2CCN(C(=O)Nc3nccnc3C(=O)NC3Cc4ccccc4C3)CC2)[C@@H]1CC(O)Cn1cnc2cc(Br)c(Cl)cc2c1=O (stereo partly drawn) [MAT582, tert-butyl (2S,3R)-2-(3-(7-bromo-6-chloro-4-oxoquinazolin-3(4H)-yl)-2-hydroxypropyl)-3-((((4-((3-((2,3-dihydro-1H-inden-2-yl)carbamoyl)pyrazin-2-yl)carbamoyl)piperazin-1-yl)sulfonyl)carbamoyl)oxy)piperidine-1-carboxylate] | 2740 | > 10000 | 8660 | – | 2490 | 8.42 | – | 265 | –
9 | O=C(NS(=O)(=O)N1CCN(C(=O)Nc2nccnc2C(=O)NC2Cc3ccccc3C2)CC1)O[C@H]1CCCN[C@@H]1CC(O)Cn1cnc2cc(Br)c(Cl)cc2c1=O (stereo partly drawn) [MAT583, (2R,3S)-2-(3-(7-bromo-6-chloro-4-oxoquinazolin-3(4H)-yl)-2-hydroxypropyl)piperidin-3-yl ((4-((3-((2,3-dihydro-1H-inden-2-yl)carbamoyl)pyrazin-2-yl)carbamoyl)piperazin-1-yl)sulfonyl)carbamate 2,2,2-trifluoroacetate] | 19 | 7750 | 2270 | – | 187 | 150 | – | 687 | –
10 | O=C(NC1Cc2ccccc2C1)c1nccnc1NC(=O)N1CCCCC1 [NCP26 (3), N-(2,3-dihydro-1H-inden-2-yl)-3-(piperidine-1-carboxamido)pyrazine-2-carboxamide] | 2.52 | 120 | 67.4 | – | 130 | – | – | 271 | Kd (PfcProRS; [14]): 103 nM; EC50 [1]: 249 nM; EC50 ([2]; read-out: EC50 in halofuginone-induced parasites): 120 nM; EC50 (HuH7 cells): > 2500 nM; Kd (HsProRS; read-out: HsProRS (KD [nM]) +ATP, +ATP): 678 nM; Kd (HsProRS; [13]): 0.351 nM; EC50 (P. falciparum Dd2-2D4; [7]): 67.4 nM
11 | O=C(C[C@H]1NCCC[C@@H]1O)Cn1cnc2cc(Br)c(Cl)cc2c1=O [halofuginone(1), halofuginone, reference compound] | > 3000 | 19.2 | 0.519 | – | > 3000 | 2040 | – | 1160 | Kd (PfcProRS; [14]): 0.503 nM; Kd (HsProRS; HsProRS (KD [nM]) +ATP, +ATP): 0.225 nM
